This note sets out measurements from ChEMBL document CHEMBL1136991, “Novel potent BRAF inhibitors: toward 1 nM compounds through optimization of the central phenyl ring” (J Med Chem, 2009).

Assay [1] addresses RAC-beta serine/threonine-protein kinase (Homo sapiens) (UniProt P31751). Kind of assay: Inhibition of PKBbeta at 1 uM relative to control.
Assay [2] deals with Serine/threonine-protein kinase Chk2 (Homo sapiens) (UniProt O96017). Put plainly: Inhibition of CHK2 at 1 uM relative to control.
The target in assay [3] is Glycogen synthase kinase-3 beta (Homo sapiens) (UniProt P49841). Put plainly: Inhibition of GSK3-beta at 1 uM relative to control.
Assay [4] has as its target Mitogen-activated protein kinase 1 (Homo sapiens) (UniProt P28482). Put plainly: Inhibition of ERK2 at 1 uM relative to control.
For assay [5], the target named is Ribosomal protein S6 kinase alpha-3 (Homo sapiens) (UniProt P51812). Kind of assay: Inhibition of RSK2 at 1 uM relative to control.
Assay [6] concerns the target T1, Serine/threonine-protein kinase Sgk1 (Homo sapiens) (UniProt O00141).
T1 sequence (whole entry): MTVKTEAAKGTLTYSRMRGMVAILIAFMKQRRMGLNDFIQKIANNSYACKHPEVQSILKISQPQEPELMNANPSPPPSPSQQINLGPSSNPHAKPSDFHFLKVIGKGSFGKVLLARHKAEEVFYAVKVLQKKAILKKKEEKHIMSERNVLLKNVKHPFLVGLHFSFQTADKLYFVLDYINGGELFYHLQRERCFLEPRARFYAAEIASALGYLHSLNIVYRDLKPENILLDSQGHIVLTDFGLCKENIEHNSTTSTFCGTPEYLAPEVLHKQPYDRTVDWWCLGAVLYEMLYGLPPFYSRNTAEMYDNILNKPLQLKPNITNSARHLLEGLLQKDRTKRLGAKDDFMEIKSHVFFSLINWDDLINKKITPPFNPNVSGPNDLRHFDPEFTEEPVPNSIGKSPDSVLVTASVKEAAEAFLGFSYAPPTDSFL
Kind of assay: Inhibition of SGK1 at 1 uM relative to control.

Assay [7] concerns the target T2, MAP kinase-activated protein kinase 5 (Homo sapiens) (UniProt Q8IW41).
T2 sequence (whole entry): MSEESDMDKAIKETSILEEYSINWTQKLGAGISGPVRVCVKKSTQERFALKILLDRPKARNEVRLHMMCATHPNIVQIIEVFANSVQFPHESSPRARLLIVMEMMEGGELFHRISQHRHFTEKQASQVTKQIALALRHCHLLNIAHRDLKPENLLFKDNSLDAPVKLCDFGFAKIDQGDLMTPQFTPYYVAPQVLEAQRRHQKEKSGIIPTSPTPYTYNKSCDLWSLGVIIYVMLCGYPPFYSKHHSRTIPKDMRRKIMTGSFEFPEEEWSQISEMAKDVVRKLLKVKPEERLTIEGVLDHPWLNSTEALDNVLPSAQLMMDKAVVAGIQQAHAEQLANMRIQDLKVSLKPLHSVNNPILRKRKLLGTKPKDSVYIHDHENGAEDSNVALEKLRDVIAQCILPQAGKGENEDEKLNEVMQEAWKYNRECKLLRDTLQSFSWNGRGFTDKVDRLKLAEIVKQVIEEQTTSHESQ
Put plainly: Inhibition of PRAK at 1 uM relative to control.

Assay [8] has as its target T3, Eukaryotic elongation factor 2 kinase (Homo sapiens) (UniProt O00418).
T3 sequence (whole entry): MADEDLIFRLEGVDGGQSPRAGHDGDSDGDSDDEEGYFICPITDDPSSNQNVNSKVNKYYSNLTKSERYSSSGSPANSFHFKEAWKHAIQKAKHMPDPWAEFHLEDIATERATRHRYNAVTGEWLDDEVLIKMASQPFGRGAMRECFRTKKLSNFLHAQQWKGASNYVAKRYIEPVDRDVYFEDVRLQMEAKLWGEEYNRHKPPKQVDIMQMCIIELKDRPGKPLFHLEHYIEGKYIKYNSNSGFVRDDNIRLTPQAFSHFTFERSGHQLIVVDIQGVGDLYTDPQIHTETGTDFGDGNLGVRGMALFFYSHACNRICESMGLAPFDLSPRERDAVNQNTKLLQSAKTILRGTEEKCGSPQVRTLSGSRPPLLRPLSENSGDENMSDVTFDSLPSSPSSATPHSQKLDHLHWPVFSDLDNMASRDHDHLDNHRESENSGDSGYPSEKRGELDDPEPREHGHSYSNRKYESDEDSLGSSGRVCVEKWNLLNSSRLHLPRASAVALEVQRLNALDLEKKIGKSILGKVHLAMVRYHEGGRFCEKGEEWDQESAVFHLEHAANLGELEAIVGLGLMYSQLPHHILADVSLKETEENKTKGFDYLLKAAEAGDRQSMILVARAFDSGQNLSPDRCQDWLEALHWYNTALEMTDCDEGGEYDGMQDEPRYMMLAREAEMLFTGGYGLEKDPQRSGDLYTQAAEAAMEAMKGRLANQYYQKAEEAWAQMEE
Put plainly: Inhibition of EFK2 at 1 uM relative to control.

Assay [9] addresses T4, Serine/threonine-protein kinase BRSK2 (Homo sapiens) (UniProt Q8IWQ3).
T4 sequence (whole entry): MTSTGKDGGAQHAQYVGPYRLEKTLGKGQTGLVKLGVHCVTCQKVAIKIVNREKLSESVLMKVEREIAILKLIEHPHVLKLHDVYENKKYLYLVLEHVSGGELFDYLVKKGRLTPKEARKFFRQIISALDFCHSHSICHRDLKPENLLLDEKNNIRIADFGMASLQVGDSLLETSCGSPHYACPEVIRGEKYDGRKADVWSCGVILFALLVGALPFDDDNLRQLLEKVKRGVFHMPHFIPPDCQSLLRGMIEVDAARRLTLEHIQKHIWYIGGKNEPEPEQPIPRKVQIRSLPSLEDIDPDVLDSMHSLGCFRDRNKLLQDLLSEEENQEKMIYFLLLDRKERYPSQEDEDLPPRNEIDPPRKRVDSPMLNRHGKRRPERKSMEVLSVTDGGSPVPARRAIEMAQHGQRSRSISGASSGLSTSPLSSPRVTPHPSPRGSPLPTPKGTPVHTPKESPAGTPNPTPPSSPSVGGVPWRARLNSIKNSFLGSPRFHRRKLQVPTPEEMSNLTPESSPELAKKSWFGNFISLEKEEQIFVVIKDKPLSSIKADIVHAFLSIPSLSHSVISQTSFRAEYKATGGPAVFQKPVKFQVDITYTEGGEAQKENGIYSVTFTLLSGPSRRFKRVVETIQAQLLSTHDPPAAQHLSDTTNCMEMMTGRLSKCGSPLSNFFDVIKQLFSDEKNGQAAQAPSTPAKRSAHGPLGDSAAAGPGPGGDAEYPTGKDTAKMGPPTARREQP
Put plainly: Inhibition of BRSK2 at 1 uM relative to control.

Sequence of Ribosomal protein S6 kinase alpha-3 (Homo sapiens) (P51812 whole entry): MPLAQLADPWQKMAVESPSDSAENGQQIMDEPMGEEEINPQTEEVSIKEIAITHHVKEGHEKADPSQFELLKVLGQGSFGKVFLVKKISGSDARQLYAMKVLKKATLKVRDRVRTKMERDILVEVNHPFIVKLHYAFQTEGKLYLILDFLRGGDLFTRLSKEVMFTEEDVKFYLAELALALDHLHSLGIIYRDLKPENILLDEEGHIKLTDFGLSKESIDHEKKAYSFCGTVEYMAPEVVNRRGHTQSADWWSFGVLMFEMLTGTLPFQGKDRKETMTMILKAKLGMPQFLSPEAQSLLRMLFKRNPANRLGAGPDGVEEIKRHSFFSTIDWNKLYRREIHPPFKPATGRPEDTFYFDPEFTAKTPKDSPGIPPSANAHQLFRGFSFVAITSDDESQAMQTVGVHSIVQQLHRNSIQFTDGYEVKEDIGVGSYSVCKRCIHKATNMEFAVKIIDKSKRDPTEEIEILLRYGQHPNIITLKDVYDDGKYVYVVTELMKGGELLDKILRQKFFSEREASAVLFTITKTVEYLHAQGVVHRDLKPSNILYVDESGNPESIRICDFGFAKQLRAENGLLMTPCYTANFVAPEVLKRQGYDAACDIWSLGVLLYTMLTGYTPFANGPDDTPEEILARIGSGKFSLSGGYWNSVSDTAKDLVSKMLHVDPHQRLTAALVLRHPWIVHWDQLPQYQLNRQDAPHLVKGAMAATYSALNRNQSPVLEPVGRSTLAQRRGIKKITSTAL
Sequence of Serine/threonine-protein kinase Chk2 (Homo sapiens) (O96017 whole entry): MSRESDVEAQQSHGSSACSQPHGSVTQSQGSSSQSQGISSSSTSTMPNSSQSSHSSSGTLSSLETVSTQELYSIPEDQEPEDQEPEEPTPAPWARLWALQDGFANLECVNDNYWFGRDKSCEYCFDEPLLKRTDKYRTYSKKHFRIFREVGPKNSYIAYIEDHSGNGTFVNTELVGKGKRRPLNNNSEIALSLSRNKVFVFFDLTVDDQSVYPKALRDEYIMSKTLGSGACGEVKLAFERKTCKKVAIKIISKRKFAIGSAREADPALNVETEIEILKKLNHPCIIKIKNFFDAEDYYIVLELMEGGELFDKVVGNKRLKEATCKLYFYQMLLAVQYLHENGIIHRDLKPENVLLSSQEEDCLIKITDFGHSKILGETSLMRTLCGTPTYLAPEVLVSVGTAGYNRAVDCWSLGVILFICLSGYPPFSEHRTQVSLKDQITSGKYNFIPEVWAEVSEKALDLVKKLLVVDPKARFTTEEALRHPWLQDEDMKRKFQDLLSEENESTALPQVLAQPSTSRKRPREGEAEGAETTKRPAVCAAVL
Sequence of RAC-beta serine/threonine-protein kinase (Homo sapiens) (P31751 whole entry): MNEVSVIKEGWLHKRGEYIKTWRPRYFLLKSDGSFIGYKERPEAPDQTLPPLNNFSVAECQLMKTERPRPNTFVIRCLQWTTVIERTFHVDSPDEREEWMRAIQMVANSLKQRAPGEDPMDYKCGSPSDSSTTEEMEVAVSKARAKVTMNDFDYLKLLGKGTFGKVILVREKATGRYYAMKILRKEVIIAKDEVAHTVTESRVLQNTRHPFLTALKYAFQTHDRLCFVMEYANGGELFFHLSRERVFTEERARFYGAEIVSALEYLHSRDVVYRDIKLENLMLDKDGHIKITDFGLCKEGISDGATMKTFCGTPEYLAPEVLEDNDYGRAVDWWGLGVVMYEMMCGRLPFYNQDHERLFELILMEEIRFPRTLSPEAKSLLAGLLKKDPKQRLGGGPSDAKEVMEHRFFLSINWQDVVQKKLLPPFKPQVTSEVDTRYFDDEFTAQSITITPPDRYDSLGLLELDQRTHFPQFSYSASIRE
Sequence of Mitogen-activated protein kinase 1 (Homo sapiens) (P28482 whole entry): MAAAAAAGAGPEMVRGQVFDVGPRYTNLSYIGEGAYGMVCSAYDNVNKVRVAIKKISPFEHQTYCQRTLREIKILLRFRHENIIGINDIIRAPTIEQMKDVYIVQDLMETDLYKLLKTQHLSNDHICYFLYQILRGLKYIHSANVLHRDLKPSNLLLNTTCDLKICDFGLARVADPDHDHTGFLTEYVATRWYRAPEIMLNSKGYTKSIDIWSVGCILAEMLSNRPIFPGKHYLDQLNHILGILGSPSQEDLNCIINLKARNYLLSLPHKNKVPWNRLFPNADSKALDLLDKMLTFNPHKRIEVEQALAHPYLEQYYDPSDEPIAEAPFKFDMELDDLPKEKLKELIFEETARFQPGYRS
Sequence of Glycogen synthase kinase-3 beta (Homo sapiens) (P49841 whole entry, looked up): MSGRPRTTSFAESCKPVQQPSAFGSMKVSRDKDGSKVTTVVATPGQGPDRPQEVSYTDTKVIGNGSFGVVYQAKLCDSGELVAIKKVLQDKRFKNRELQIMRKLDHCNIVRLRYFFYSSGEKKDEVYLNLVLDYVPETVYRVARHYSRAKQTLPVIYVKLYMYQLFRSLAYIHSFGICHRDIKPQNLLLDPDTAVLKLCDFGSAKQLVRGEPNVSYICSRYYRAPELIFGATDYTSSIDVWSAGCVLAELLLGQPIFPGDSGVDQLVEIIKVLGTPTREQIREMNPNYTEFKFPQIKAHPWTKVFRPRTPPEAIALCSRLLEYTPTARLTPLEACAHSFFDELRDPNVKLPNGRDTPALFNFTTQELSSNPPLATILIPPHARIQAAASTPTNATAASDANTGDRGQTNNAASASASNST

As to `CSc1cc(Oc2ccnc3[nH]c(=O)[nH]c23)ccc1NC(=O)Nc1cccc(C(F)(F)F)c1`, the residual activity in assay [1], in assay [2], in [3], in assay [4], in assay [5] and in assay [6] was 100% in each case. For the same molecule, the residual activity in assay [7] was 75%; in [8] it was 100%; in assay [9], 50%.

In the case of `O=C(Nc1cc(C(F)(F)F)ccc1F)Nc1ccc(Oc2ccnc3[nH]c(=O)[nH]c23)c2ccccc12`, the residual activity in assay [1] is 100%; in assay [2], 100%; in assay [3], 75%; in assay [4] it was 100%; in assay [5] it was 100%; in [6], 100%. Besides, the residual activity in [7] worked out at 75%; in assay [8], 75%; in [9], 50%.

On to `CC(C)(C)c1cccc(NC(=O)Nc2ccc(Oc3ccnc4[nH]c(=O)[nH]c34)c3ccccc23)c1`, for which the residual activity in assay [1] worked out at 75%; in assay [2], 75%; in [3] it was 75%; in [4], 75%; in assay [5] it was 75%; in assay [6] it was 100%. For the same molecule, the values for the residual activity in [7], in [8] and in assay [9] were 75%, 100% and 75%, respectively.
